Source: BindingDB's records for PubMed 36325400 (Prince Sattam Bin Abdulaziz University, 2022)

Target: Phospholipase A2 group V (Homo sapiens) (UniProt P39877)
Experiment: Inhibition of recombinant human sPLA2-V

Phospholipase A2 group V (Homo sapiens), sequence (P39877 whole entry, looked up): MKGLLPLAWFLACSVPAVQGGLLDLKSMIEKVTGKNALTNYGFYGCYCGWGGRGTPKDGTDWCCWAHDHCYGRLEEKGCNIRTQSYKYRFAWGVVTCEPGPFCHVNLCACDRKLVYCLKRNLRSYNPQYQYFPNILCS

IC50	SMILES
3100 nM	COc1ccnc(Nc2n[nH]c(N)c2C#N)c1
3200 nM	CCOc1cc(N)n2nc(Nc3cc(OC)ccn3)c(C#N)c2n1
3200 nM	COc1ccnc(Nc2nn3c(C)cc(C)nc3c2C#N)c1
1700 nM	CCOc1cc(C)nc2c(C#N)c(Nc3cc(OC)ccn3)nn12
590 nM	C[C@@H]1C[C@H]2[C@@H]3CCC4=CC(=O)C=C[C@]4(C)[C@@]3(F)[C@@H](O)C[C@]2(C)[C@@]1(O)C(=O)CO [dexamethasone (tetramethyl-rhodamine conjugated )]
1000 nM	COc1ccnc(Nc2nn3c(SC)c(C#N)c(O)nc3c2C#N)c1
2600 nM	COc1ccnc(Nc2nn3c(SC)c(C#N)c(N)nc3c2C#N)c1
